In data set [1] the test system is broadleaf weeds. The data set can be described thus: Example 2: mechanical transplanting using young seedlings, poured into flooded water, herbicidal effect on broadleaf weeds. Also: key: 5: complete control; 4: excellent effect; 3: large effect; 2: fair effect; 1: small effect; 0: no effect. Format: in vivo. As to conditions: 20 days. Here is the method:
(§1) The tests were conducted by using the compositions of Example 1 in the paddy field of Ishigakijima, Okinawa-Ken, Japan.
(§2) 1. Plot size: Two replications each 1 m^2 per division.
(§3) 2. Culturing method: Mechanical transplanting using young seedlings
(§4) 3. Rice variety: Nihonbare
(§5) 4. Transplanting: Apr. 8, 1974
(§6) 2.3 - 3 leaf stage of rice at the transplanting;
(§7) 5. Depth of water: 3 - 5 cm
(§8) A. first treatment: Apr. 19, 1974
(§9) (16 days after transplanting)
(§10) 2 - 2.5 leaf stage of barnyard grass
(§11) B. second treatment: Apr. 23, 1974
(§12) (20 days after transplanting)
(§13) 3 - 3.5 leaf stage of barnyard grass.
(§14) Each composition was diluted with 50 cc of water and the solution was poured in the rows by using a watering pot.
Monochoria vaginalis (Burm fil) Presel;
Rotala indica (Willd) Koehne;
Scirpus juncoides Roxb; and
(§15) After 20 days from the treatment (the first treatment and the second treatment), the herbicidal effects and the condition of the rice were observed.

A further data set concerns larva of mosquito. The data set can be described thus: LD50 to larva of mosquito (Table 1). Particulars: read-out: LD50 to larva of mosquito.
Data set [2] can be described thus: Experiment 3: decomposition of DCPA in soil. Format: physicochemical. Particulars: Alluvium loam soil, DCPA 100 g/are; for inhibition of the decomposition of DCPA in soil: NAC 3.3 g/are. As for the experimental part:
The method of this invention is treatment in flooded water. Accordingly, transfer of the active ingredients into the soil of the paddy field is unavoidable. The decompositions of the active ingredients in the paddy soil were measured.
Soil: Alluvium loam soil
The active ingredients were uniformly mixed in a 5 mm
Analysis: The concentrations of DCPA were
measured by gas chromatography in […]

The next data set relates to house fly. The data set can be described thus: LD50 to house fly (Table 1). As to conditions: addition of piperinyl butoxide.
Data set [3] concerns barnyard grass. The data set can be described thus: Example 1: usual transplanting culture, paddy field, poured into flooded water, herbicidal effect on barnyard grass. As to Herbicidal effect, barnyard grass: key: 5: complete control; 4: excellent effect; 3: large effect; 2: fair effect; 1: small effect; 0: no effect. As to conditions: for Herbicidal effect, barnyard grass: 3 weeks; for herbicidal effect to barnyard grass and broadleaf weeds: poured into flooded water. Format: in vivo, Echinochloa crusgalli.
Description: (§16) DCPA and β-NAC were separately crushed into fine powders by a jetmizer. The crushed DCPA and β-NAC were mixed in ratios of 80 : 1; 40 : 1; 20 : 1 and 10 : 1 together with a dispersing agent (Sorpol 5039 manufactured by Toho Chemical Co. and Rapizol BB-74 manufactured by Nippon Fat & Oil Co.) to form a wettable powder. The compositions were applied under the following conditions in a paddy field of Ishigakijima, Okinawa-Ken, Japan.
(§17) 1. Plot size: Two replications, each 1 m^2 per division
(§18) 2. Culturing method: Usual transplanting
(§19) 3. Rice variety: Taichu 65
(§20) 5 - 6 leaf stage of rice plants at the transplanting;
(§21) a. Treating time Mar. 16, 1974 (17 days after transplanting)
as §10
(§22) Each composition was diluted with 50 cc of water and the solution was poured in the rows by using a watering pot
(§23) Barnyard grass (Echinochloa crusgalli);
(§24) After 3 weeks from the treatment, the herbicidal effect and the phytotoxicity were observed.

Data set [4] concerns rice plant. The data set can be described thus: Example 1: usual transplanting culture, paddy field, phytotoxicity to rice plant. Type of data set: in vivo, Taichu 65. Details: key: X: killed; ++++: serious damage; +++: high damage; ++: middle damage; +: low damage; ±: quite low damage; -: no damage. Particulars: 3 weeks.
Description: as §16, §17, §18, §19, §20, §21, §10, §22, §24

In data set [5] the test system is broadleaf weeds. The data set can be described thus: Example 1: usual transplanting culture, paddy field, poured into flooded water, herbicidal effect on broadleaf weeds. Also: key: 5: complete control; 4: excellent effect; 3: large effect; 2: fair effect; 1: small effect; 0: no effect. Type of data set: in vivo. Particulars: 3 weeks.
Description: as §16, §17, §18, §19, §20, §21, §10, §22
Monochoria vaginalis (Burm fil) Presl;
Dopatrium junceum (Roxb) Hamilt;
Rotala indica (Willd) koehne;
Eleocharis acicularis Roem et Schult;
as §24

The test system of data set [6] is barnyard grass. The data set can be described thus: Example 2: mechanical transplanting using young seedlings, poured into flooded water, herbicidal effect on barnyard grass. As to Herbicidal Effect, BG: key: 5: complete control; 4: excellent effect; 3: large effect; 2: fair effect; 1: small effect; 0: no effect. Format: in vivo, Echinochloa crusgalli. As to conditions: for Herbicidal Effect, BG: 20 days. As for the experimental part:
as §1, §2, §3, §4, §5, §6, §7, §8, §9, §10, §11, §12, §13, §14, §23, §15

The nature of the next data set: Insecticidal effect. Particulars: in vivo.
Data set [7] concerns rice plant. The data set can be described thus: Reference Experiment 2: foliage treatment, phytotoxicity of rice plant. Type of data set: in vivo. As to conditions: DCPA 1000 ppm alone. The source says:
In unglazed pots having diameters of 9 cm, diluvium clay loam was filled and rice seeds and barnyard grass seeds were sowed and grown. […] The phytotoxicity of rice and herbicidal effect on barnyard grass were observed 20 days from the treatment.

Setting [8] is: A: 2 - 2.5 leaf stage, DCPA none, β-NAC 4.0 g/are.
[9] abbreviates: B: 3 - 3.5 leaf stage, DCPA none, β-NAC 4.0 g/are.
Setting [10] is: A: 2 - 2.5 leaf stage, DCPA 60 g/are, β-NAC none.
Setting [11] is: B: 3 - 3.5 leaf stage, DCPA 60 g/are, β-NAC none.

“Also recorded” adds a separate entry of the source.

As to `CNC(=O)Oc1ccc2ccccc2c1` [β-NAC, β-naphthyl-N-methyl carbamate], the “Herbicidal Effect, BLW” value in the data set with broadleaf weeds [1] (setting [8]) and in the data set on broadleaf weeds [1] (setting [9]) was 0 throughout. Besides, in the data set with larva of mosquito, the LC50 was more than 10 µg/mL. Also, in data set [2], the “inhibition of the decomposition of DCPA in soil” value is “higher effect for inhibiting the decomposition of DCPA”. In the data set on house fly, the “LD50 to house fly” value was 12.5 µg/g. Further, the “Herbicidal effect, barnyard grass” value in the data set on barnyard grass [3] (DCPA none, β-NAC 4.0 g/are) was 0. Also, in the data set with barnyard grass [3] (β-NAC 4 g/are), the “herbicidal effect to barnyard grass and broadleaf weeds” value is recorded as “no herbicidal effect”. In the data set with rice plant [4] (DCPA none, β-NAC 4.0 g/are), the “Phytotoxicity to rice plant” value was “-”. The “Herbicidal effect, broadleaf weeds” value with broadleaf weeds [5] (DCPA none, β-NAC 4.0 g/are) amounted to 0. Besides, the “Herbicidal Effect, BG” value in the data set with barnyard grass [6] (setting [8]) and in the data set with barnyard grass [6] (setting [9]) was 0 throughout. Besides, the insecticidal effect entry in the data set “Insecticidal effect” is on record as “low insecticidal effect; also recorded: no insecticidal effect”.
In the case of `CCC(=O)Nc1ccc(Cl)c(Cl)c1` [DCPA, 3,4-dichloropropionanilide, reference compound], the “Herbicidal Effect, BLW” value in the data set on broadleaf weeds [1] (setting [10]) and in the data set with broadleaf weeds [1] (setting [11]) was 0 throughout. The “Phytotoxicity to rice plants” value in the data set on rice plant [7] was “not found”. The “minimum residues of DCPA in soil” value in data set [2] (α-NAC or β-NAC 3.3 g/are where combined, gas chromatography) was determined as 4 days. In addition, in the data set on barnyard grass [3] (DCPA 60 g/are, β-NAC none), the “Herbicidal effect, barnyard grass” value is recorded as 0. In the data set on barnyard grass [3] (DCPA 60 g/are), the “herbicidal effect to barnyard grass and broadleaf weeds” value was “no herbicidal effect”. Further, the “Phytotoxicity to rice plant” value in the data set on rice plant [4] (DCPA 60 g/are, β-NAC none) was “-”. The “Herbicidal effect, broadleaf weeds” value in the data set with broadleaf weeds [5] (DCPA 60 g/are, β-NAC none) is on record as 0. The “Herbicidal Effect, BG” value with barnyard grass [6] (setting [10]) and in the data set with barnyard grass [6] (setting [11]) was 0 each time. Moreover, in the data set on barnyard grass [6] (DCPA 60 g/are, 2 - 2.5 and 3 - 3.5 leaf stage of barnyard grass), the “herbicidal effect” value is “no herbicidal effect was found”.
`CNC(=O)Oc1cccc2ccccc12` [α-NAC, α-naphthyl-N-methyl carbamate]: in [2], the “inhibition of the decomposition of DCPA in soil” value is recorded as “inhibit the decomposition of DCPA”.

The values above are taken from patent US4013449A, “Method of controlling weed growth in a paddy field” (priority 1974, dated 1977).
